Experimental data: ChEMBL document CHEMBL1641564, “In vitro evaluation of 5-arylidene-2-thioxo-4-thiazolidinones active as aldose reductase inhibitors” (Bioorg Med Chem Lett, 2011)

What was measured:
[1] = target: Aldo-keto reductase family 1 member B1 (Bos taurus, UniProt P16116); assay: Inhibition of bovine lens aldose reductase assessed as inhibition of […] oxidation by non-linear regression analysis
[2] = target: Aldo-keto reductase family 1 member B1 (Bos taurus) (UniProt P16116); assay: Inhibition of bovine lens aldose reductase assessed as inhibition of […] oxidation at 16 uM by non-linear regression analysis
[3] = target: Aldo-keto reductase family 1 member B1 (Bos taurus) (UniProt P16116); assay: Inhibition of bovine lens aldose reductase assessed as inhibition of […] oxidation at 13 uM by non-linear regression analysis
[4] = target: T1, Aldo-keto reductase family 1 member B1 (Homo sapiens, UniProt P15121); assay: Inhibition of aldose reductase
[5] = target: T1, Aldo-keto reductase family 1 member B1; assay: Inhibition of aldose reductase at 50 uM
[6] = target: T1, Aldo-keto reductase family 1 member B1; assay: Inhibition of aldose reductase at 37 uM
[7] = target: Aldo-keto reductase family 1 member B1 (Bos taurus) (UniProt P16116); assay: Inhibition of bovine lens aldose reductase assessed as inhibition of […] oxidation at 11 uM by non-linear regression analysis

Row | Structure (SMILES) | IC50 [1] | IC50 [4] | other results
1 | COc1cccc(/C=C2\SC(=S)N(CC(=O)O)C2=O)c1 | 150 nM | – | –
2 | O=C1NC(=S)S/C1=C\c1ccc2ccccc2c1 | – | – | inhibition [2]: 40%
3 | O=C(O)CN1C(=O)/C(=C/c2ccc(Oc3ccccc3)cc2)SC1=S | 110 nM | – | –
4 | O=C(O)CN1C(=O)/C(=C/c2cccc(OCc3ccccc3)c2)SC1=S | 130 nM | – | –
5 | O=C1NC(=S)S/C1=C\c1ccc(-c2ccccc2)cc1 | – | – | inhibition [3]: 28%
6 | O=C1NC(=O)/C(=C/c2cccc3ccccc23)S1 | – | 10.7 µM | –
7 | O=C1N=C(O)S/C1=C\c1ccc(OCc2ccccc2)cc1 | – | – | inhibition [5]: 10%
8 | COc1cccc(/C=C2\SC(=O)N(CC(=O)O)C2=O)c1 | – | 0.48 µM | –
9 | O=C(O)CN1C(=O)S/C(=C\c2ccc(Oc3ccccc3)cc2)C1=O | – | 0.82 µM | –
10 | COc1cccc(/C=C2\SC(=O)NC2=O)c1 | – | 13.3 µM | –
11 | O=C(O)CN1C(=O)/C(=C/c2ccc(OCc3ccccc3)cc2)SC1=S | 190 nM | – | –
12 | O=C1N=C(O)S/C1=C\c1ccc(Oc2ccccc2)cc1 | – | – | inhibition [6]: 41%
13 | COc1ccc(/C=C2\SC(=S)NC2=O)cc1 | 5230 nM | – | –
14 | O=C(O)CN1C(=O)S/C(=C\c2ccc(OCc3ccccc3)cc2)C1=O | – | 0.28 µM | –
15 | COc1ccc(/C=C2\SC(=O)NC2=O)cc1 | – | 40.8 µM | –
16 | O=C1NC(=O)/C(=C/c2ccc(-c3ccccc3)cc2)S1 | – | – | inhibition [5]: 20%
17 | O=C1NC(=S)S/C1=C\c1ccc(O)cc1 | 4550 nM | – | –
18 | O=C1NC(=O)/C(=C/c2ccc(O)cc2)S1 | – | 8.96 µM | –
19 | O=C1NC(=S)S/C1=C\c1ccc(OCc2ccccc2)cc1 | – | – | inhibition [7]: 7%

Now from value to molecule, other results behind:

Row | IC50 [1] | IC50 [4] | Structure (SMILES) | other results
20 | 2940 nM | – | O=C1NC(=S)S/C1=C\c1cccc(Oc2ccccc2)c1 | –
21 | 410 nM | – | O=C(O)CN1C(=O)/C(=C/c2cccc(Oc3ccccc3)c2)SC1=S | –
22 | – | 6.14 µM | O=C1NC(=O)/C(=C/c2cccc(Oc3ccccc3)c2)S1 | –
23 | 2270 nM | – | O=C1NC(=S)S/C1=C\c1cccc2ccccc12 | –
24 | 1080 nM | – | O=C1NC(=S)S/C1=C\c1cccc(OCc2ccccc2)c1 | –
25 | 6240 nM | – | COc1cccc(/C=C2\SC(=S)NC2=O)c1 | –
26 | – | 0.13 µM | O=C(O)CN1C(=O)S/C(=C\c2cccc(Oc3ccccc3)c2)C1=O | –
27 | 1100 nM | – | O=C1NC(=S)S/C1=C\c1ccc(Oc2ccccc2)cc1 | –
